Data from ChEMBL document CHEMBL5696439 (Cancer Res, 2010).
The source made the active and inactive calls. The rule behind the calls is not given here.

Legend:
[1] = target: Tyrosine-protein kinase Mer (Homo sapiens) (UniProt Q12866); test: Inhibition of recombinant human GST-tagged MERTK (578-872 residues) expressed in insect cells at 2 uM using Tyr 02 as substrate measured after 1 hr by Z'-LYTE assay relative to control; details: Insect cell
[2] = target: Aurora kinase A (Homo sapiens) (UniProt O14965); test: Inhibition of recombinant human full-length His-tagged AURKA expressed in insect cells at 2 uM using Ser/Thr 01 as substrate measured after 1 hr by Z'-LYTE assay relative to control; details: Insect cell
PC3MM2 = test: Antitumor activity against human PC3MM2 cells assessed as block the hypoxia-induced VEGF production in low oxygen at 0.3 micromol/L incubated for 24 hrs by ELISA analysis; assay type: functional, cell-based; details: dose 0.3 µmol/L
[3] = target: Dual specificity mitogen-activated protein kinase kinase 6 (Homo sapiens) (UniProt P52564); test: Inhibition of recombinant human full length His-tagged MAP2K6 expressed in baculovirus expression system at 2 uM using Ser/Thr 03 as substrate measured after 1 hr by Z'-LYTE assay relative to control
MDA-MB-361 [4] = test: Antitumor activity against human MDA-MB-361 cells xenografted in female nude mouse model assessed as suppression in P-S6 level at 6 to 12 mg/kg, po qd administered as 5 days on/2 days off regimen for 4 cycles by immunoblot analysis; assay type: functional, organism-based; details: dose 6-12 mg/kg, time 28.0 day
[5] = Inhibition of recombinant human GST-tagged ROCK1 (1-552 residues) expressed in insect cells at 2 uM using Ser/Thr 13 as substrate measured after 1 hr by Z'-LYTE assay relative to control; details: Insect cell, condition cancer
[6] = target: Cyclin-dependent kinase 5/CDK5 activator 1 (Homo sapiens) (UniProt Q00535+Q15078); test: Inhibition of recombinant human full-length GST/His-tagged CDK5/p25 expressed in insect cells at 2 uM using Ser/Thr 12 as substrate measured after 1 hr by Z'-LYTE assay relative to control; details: Insect cell
A498 = test: cells; details: Homo sapiens, A498, 48 h
Description: Antiproliferative activity against human A498 cells assessed as cell growth inhibition incubated for 2 days by MTS assay

HT-29 [7] = test: Antitumor activity against human HT-29 cells xenografted in female nude mouse model assessed as reduction in P-AKT at T308 level at 50 mg/kg, iv administered once a week and measured at least 8 hrs by immunoblot analysis; assay type: functional, organism-based
[8] = test system: Fibroblast growth factor receptor 3 (Homo sapiens), P22607 [K650E]; test: Inhibition of recombinant human His-tagged FGFR3 FGFR3 K650E mutant (398-806 residues) expressed in baculovirus expression system at 2 uM using Tyr 04 as substrate measured after 1 hr by Z'-LYTE assay relative to control
[9] = target: Casein kinase II subunit alpha (Homo sapiens) (UniProt P68400); test: Inhibition of recombinant human full-length His-tagged CSNK2A1 expressed in baculovirus expression system at 2 uM using Ser/Thr 11 as substrate measured after 1 hr by Z'-LYTE assay relative to control
MDA-MB-361 [10] = test: Antitumor activity against human MDA-MB-361 cells assessed as block the accumulation of HIF-2alpha in low oxygen at 0.3 micromol/L incubated for 24 hrs by immunoblot analysis; assay type: functional, cell-based; details: dose 0.3 µmol/L
[11] = target: Receptor-type tyrosine-protein kinase FLT3 (Homo sapiens) (UniProt P36888); test: Inhibition of recombinant human His-tagged FLT3 (564-958 residues) expressed in insect cells at 2 uM using Tyr 02 as substrate measured after 1 hr by Z'-LYTE assay relative to control; details: Insect cell
[12] = target: Mitogen-activated protein kinase 14 (Homo sapiens) (UniProt Q16539); test: Inhibition of recombinant human full length GST-tagged MAPK14 expressed in E. coli at 2 uM using Ser/Thr 04 as substrate measured after 1 hr by Z'-LYTE assay relative to control
Chain of Mitogen-activated protein kinase 14 (Homo sapiens) (Q16539 whole entry, the tested form may be a part): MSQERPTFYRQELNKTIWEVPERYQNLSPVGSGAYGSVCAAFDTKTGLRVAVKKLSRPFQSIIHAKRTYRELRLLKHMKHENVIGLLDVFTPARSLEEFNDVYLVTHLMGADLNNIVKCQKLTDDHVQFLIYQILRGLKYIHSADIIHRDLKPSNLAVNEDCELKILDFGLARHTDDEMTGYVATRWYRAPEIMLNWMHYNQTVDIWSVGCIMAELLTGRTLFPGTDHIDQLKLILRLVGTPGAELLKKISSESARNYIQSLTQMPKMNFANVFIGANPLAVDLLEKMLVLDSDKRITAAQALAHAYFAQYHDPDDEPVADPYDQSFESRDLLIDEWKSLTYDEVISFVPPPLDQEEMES

[13] = test system: Epidermal growth factor receptor (Homo sapiens), P00533 [T790M]; test: Inhibition of recombinant human GST-tagged EGFR T790M mutant (668-1210 residues) expressed in insect cells at 2 uM using Tyr 04 as substrate measured after 1 hr by Z'-LYTE assay relative to control; details: Insect cell
U-87 MG = test: Antitumor activity against human U-87MG cells assessed as reduction in HIF-1alpha level at 0.025 to 2 micromol/L incubated for 6 hrs by immunoblot analysis; assay type: functional, cell-based; details: U-87MG ATCC, dose 0.025-2 µmol/L
[14] = target: cGMP-dependent protein kinase 2 (Homo sapiens) (UniProt Q13237); test: Inhibition of recombinant human full length GST-tagged PRKG2 expressed in insect cells at 2 uM using Ser/Thr 01 as substrate measured after 1 hr by Z'-LYTE assay relative to control; details: Insect cell
[15] = test system: Platelet-derived growth factor receptor alpha (Homo sapiens), P16234 [D842V]; test: Inhibition of recombinant human GST-tagged PDGFRA D842V mutant (550-1089 residues) expressed in baculovirus expression system at 2 uM using Tyr 04 as substrate measured after 1 hr by Z'-LYTE assay relative to control
Chain of Platelet-derived growth factor receptor alpha (Homo sapiens), P16234 [D842V] (P16234 whole entry D842V, the tested form may be a part): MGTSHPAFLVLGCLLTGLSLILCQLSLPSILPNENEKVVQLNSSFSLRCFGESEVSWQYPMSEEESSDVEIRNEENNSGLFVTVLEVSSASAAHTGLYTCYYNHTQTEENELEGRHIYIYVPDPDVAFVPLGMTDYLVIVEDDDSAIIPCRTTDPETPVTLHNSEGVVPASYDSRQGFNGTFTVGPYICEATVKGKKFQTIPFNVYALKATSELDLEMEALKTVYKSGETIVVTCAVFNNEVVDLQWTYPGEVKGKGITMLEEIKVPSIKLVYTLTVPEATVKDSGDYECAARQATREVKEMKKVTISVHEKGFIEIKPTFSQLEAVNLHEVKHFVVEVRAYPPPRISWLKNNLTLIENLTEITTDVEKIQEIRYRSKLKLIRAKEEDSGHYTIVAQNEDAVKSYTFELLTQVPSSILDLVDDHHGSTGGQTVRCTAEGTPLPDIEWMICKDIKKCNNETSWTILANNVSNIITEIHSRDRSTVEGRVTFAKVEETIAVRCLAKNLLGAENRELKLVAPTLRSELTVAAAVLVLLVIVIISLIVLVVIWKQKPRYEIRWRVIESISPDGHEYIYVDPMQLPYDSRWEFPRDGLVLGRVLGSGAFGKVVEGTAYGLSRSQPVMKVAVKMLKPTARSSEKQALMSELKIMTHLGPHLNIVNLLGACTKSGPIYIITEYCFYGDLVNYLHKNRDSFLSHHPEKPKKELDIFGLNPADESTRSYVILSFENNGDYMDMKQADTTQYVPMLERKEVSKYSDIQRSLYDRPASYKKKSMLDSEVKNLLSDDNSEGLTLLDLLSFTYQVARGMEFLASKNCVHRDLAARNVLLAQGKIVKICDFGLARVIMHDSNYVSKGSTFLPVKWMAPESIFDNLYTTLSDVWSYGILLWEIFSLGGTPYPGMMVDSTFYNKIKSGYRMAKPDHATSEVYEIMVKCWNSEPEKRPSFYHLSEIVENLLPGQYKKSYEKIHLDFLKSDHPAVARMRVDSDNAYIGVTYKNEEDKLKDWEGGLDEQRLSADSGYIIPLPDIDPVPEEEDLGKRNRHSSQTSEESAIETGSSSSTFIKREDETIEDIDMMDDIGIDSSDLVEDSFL

[16] = target: Protein kinase C eta type (Homo sapiens) (UniProt P24723); test: Inhibition of recombinant human PRKCH at 2 uM using Ser/Thr 07 as substrate measured after 1 hr by Z'-LYTE assay relative to control
[17] = target: Casein kinase I isoform gamma-3 (Homo sapiens) (UniProt Q9Y6M4); test: Inhibition of recombinant human full-length GST-tagged CSNK1G3 expressed in insect cells at 2 uM using Ser/Thr 05 as substrate measured after 1 hr by Z'-LYTE assay relative to control; details: Insect cell
[18] = target: Serine/threonine-protein kinase MRCK beta (Homo sapiens) (UniProt Q9Y5S2); test: Inhibition of recombinant human His-tagged CDC42BPB (1-473 residues) expressed in baculovirus expression system at 2 uM using Ser/Thr 13 as substrate measured after 1 hr by Z'-LYTE assay relative to control
Chain of Serine/threonine-protein kinase MRCK beta (Homo sapiens) (Q9Y5S2 whole entry, the tested form may be a part): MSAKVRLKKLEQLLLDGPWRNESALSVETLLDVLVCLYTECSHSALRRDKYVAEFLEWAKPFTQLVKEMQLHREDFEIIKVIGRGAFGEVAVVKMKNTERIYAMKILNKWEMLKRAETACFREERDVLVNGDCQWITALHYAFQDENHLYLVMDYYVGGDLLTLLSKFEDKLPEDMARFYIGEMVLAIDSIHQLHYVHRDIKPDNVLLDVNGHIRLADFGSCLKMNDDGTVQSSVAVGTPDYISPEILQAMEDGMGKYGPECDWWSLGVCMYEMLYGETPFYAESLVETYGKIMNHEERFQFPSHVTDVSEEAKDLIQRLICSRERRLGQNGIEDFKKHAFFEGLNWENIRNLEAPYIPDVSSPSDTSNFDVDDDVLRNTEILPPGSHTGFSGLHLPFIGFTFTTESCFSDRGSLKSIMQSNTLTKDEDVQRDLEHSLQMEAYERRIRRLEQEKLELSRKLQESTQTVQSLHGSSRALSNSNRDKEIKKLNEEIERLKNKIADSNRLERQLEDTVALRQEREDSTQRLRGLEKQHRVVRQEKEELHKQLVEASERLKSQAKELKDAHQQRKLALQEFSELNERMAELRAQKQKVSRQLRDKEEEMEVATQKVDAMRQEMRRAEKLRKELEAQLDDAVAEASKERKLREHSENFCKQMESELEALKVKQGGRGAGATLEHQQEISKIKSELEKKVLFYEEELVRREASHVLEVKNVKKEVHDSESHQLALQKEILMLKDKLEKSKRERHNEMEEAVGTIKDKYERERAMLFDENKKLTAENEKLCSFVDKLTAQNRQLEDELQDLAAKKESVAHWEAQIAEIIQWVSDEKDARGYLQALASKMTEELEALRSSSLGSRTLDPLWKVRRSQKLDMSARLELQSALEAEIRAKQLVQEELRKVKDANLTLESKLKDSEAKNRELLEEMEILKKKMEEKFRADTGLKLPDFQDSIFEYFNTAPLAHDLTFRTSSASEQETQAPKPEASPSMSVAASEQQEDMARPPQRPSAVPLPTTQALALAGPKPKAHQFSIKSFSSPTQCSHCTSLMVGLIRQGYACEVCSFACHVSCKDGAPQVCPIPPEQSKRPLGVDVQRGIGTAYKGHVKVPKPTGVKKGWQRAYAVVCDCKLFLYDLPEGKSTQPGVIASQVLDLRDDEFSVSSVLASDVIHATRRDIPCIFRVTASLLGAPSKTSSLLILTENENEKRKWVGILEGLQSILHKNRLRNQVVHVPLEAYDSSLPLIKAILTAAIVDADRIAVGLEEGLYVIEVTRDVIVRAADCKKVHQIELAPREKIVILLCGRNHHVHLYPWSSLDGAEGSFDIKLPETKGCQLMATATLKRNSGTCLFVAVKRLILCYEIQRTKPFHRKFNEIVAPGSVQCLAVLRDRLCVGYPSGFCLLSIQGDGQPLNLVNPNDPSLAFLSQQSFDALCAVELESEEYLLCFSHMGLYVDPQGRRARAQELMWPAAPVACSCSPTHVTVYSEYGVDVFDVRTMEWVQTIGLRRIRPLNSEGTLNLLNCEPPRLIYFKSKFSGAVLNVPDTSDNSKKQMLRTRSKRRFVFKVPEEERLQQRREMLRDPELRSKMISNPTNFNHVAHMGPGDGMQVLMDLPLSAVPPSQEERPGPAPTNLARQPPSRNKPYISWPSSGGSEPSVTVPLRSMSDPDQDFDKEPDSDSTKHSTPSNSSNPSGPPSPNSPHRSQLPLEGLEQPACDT

HT-29 [19] = test: Induction of apoptosis in human HT-29 cells assessed as increase in PARP cleavage at 0.3 to 3 micromol/L incubated for 48 hrs by Western blot analysis; assay type: functional, cell-based; details: dose 0.3-3 µmol/L
[20] = target: Serine/threonine-protein kinase N1 (Homo sapiens) (UniProt Q16512); test: Inhibition of recombinant human full length GST-tagged PKN1 expressed in insect cells at 2 uM using Ser/Thr 07 as substrate measured after 1 hr by Z'-LYTE assay relative to control; details: Insect cell
Chain of Serine/threonine-protein kinase N1 (Homo sapiens) (Q16512 2-942 limits assumed): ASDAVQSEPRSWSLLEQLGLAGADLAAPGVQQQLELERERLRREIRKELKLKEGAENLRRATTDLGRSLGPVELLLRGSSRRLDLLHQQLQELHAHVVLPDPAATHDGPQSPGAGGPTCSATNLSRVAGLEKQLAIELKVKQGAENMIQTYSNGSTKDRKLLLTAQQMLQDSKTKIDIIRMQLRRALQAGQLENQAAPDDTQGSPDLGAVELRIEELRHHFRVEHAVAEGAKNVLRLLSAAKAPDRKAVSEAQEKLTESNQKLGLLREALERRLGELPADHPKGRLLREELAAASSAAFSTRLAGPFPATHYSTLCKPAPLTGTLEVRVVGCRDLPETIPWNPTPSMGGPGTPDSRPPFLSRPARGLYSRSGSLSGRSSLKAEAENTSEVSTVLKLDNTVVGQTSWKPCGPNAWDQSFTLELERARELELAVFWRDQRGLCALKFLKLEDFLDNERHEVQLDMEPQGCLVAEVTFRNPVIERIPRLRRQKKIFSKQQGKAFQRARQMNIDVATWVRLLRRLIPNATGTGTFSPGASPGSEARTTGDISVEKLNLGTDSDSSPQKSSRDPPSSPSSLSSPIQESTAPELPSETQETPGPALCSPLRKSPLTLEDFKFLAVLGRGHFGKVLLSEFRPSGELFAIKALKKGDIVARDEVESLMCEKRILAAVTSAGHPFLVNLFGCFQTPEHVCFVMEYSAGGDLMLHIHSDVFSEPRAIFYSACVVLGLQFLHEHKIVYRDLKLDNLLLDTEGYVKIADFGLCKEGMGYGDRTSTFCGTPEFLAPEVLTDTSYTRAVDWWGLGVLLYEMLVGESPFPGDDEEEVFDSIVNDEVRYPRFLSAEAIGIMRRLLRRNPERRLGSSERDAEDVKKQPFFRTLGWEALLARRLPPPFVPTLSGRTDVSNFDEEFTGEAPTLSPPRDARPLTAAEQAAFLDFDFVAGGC

[21] = target: Dual specificity tyrosine-phosphorylation-regulated kinase 3 (Homo sapiens) (UniProt O43781); test: Inhibition of recombinant human full-length GST-tagged DYRK3 expressed in insect cells at 2 uM using Ser/Thr 09 as substrate measured after 1 hr by Z'-LYTE assay relative to control; details: Insect cell
[22] = target: Serine/threonine-protein kinase Nek9 (Homo sapiens) (UniProt Q8TD19); test: Inhibition of recombinant human GST-tagged NEK9 (347-732 residues) expressed in insect cells at 2 uM using Ser/Thr 07 as substrate measured after 1 hr by Z'-LYTE assay relative to control; details: Insect cell

Chain of Tyrosine-protein kinase Mer (Homo sapiens) (Q12866 whole entry, the tested form may be a part): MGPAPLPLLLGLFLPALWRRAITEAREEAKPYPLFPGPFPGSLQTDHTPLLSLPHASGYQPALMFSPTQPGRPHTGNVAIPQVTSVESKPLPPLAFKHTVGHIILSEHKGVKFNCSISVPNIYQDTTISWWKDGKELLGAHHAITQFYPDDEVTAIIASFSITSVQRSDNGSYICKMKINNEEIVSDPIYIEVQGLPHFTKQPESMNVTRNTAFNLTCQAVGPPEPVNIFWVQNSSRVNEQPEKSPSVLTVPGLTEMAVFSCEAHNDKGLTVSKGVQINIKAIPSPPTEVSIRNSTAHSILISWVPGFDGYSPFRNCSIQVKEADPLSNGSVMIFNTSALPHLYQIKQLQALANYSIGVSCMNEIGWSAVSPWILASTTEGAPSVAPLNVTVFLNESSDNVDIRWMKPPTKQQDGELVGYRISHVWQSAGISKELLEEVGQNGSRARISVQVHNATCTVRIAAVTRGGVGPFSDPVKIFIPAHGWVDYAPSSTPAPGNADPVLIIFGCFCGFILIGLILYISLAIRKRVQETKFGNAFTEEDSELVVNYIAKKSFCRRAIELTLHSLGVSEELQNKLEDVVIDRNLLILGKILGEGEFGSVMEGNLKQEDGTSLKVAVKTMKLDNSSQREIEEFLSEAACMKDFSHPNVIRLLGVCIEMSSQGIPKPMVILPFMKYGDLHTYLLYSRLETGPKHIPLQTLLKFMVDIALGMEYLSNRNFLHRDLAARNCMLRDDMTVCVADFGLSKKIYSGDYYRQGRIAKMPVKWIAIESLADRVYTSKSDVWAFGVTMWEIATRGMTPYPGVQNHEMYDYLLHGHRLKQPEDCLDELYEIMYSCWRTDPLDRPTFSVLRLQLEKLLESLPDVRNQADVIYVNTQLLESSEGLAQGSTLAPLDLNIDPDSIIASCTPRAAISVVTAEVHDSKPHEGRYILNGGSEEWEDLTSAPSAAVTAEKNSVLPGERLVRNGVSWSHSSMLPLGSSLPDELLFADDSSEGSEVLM

CNC(=O)Nc1ccc(-c2nc(N3CC4CCC(C3)O4)c3cnn(C4CCC5(CC4)OCCO5)c3n2)cc1
inhibition [1]: 1%
inhibition [2]: 0%
Activity (PC3MM2): Active
inhibition [3]: 8%
Activity (MDA-MB-361 [4]): Active
inhibition at 2 µM [5]: 5%
inhibition [6]: 1%
IC50 (A498): 2500 nM
Activity (HT-29 [7]): inactive
inhibition [8]: 6%
inhibition [9]: 0%
Activity (MDA-MB-361 [10]): Active
inhibition [11]: 17%
inhibition [12]: 11%
inhibition [13]: 2%
Activity (U-87 MG): Active
inhibition [14]: 9%
inhibition [15]: 4%
inhibition [16]: 14%
inhibition [17]: -1%
inhibition [18]: 9%
Activity (HT-29 [19]): inactive
inhibition [20]: 14%
inhibition [21]: -1%
inhibition [22]: -2%
